Among the test systems are OVCAR-3 ovarian; LOX IMVI melanoma; IGROV1 ovarian; HOP-62 NSCLC; OVCAR-5 ovarian; EKVX NSCLC; SK-OV-3 ovarian; OVCAR-4 ovarian.
Holding throughout (assay): growth of human tumour cells (NCI), 48 h

SMILES strings stand for the structures. Values joined by “and” are separate entries in the source; they are usually repeats but may differ in a detail not shown here. Identical values can stand only once.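 Step 1: Grow cells in 96-well plates. Step 2: Expose to compound for 48 hours at 5 concentrations. Step 3: Interpolate endpoints linearly; if unreached, use highest concentration. GI50 marks 50% less growth. TGI: total growth inhibition.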

As for `CCCNC(=O)Nc1ccc2c(c1)Cc1cc(N(CCCl)CCCl)ccc1-2`, the TGI was 54.4 µM in the experiment on OVCAR-3 ovarian; over 100 µM in the experiment on LOX IMVI melanoma; 50.6 µM in the experiment with IGROV1 ovarian; over 100 µM in the experiment with HOP-62 NSCLC; over 100 µM in the experiment on OVCAR-5 ovarian; 77.4 µM in the experiment on EKVX NSCLC.
For `COC(=O)C1=C(O)C(C(=O)OC)[C@@]2(O)[C@@H](C(=O)OC)C(c3ccccc3Cl)C[C@@H]1[C@@H]2C(=O)OC` (some centres undefined), the GI50 in the experiment with OVCAR-3 ovarian is 4.48 µM; with LOX IMVI melanoma it was 4.43 µM; in the experiment with IGROV1 ovarian it was 3.52 µM; in the experiment on SK-OV-3 ovarian it was 23.6 µM; with HOP-62 NSCLC it was 10.4 µM; in the experiment with OVCAR-5 ovarian it was 15 µM. In addition, the values for the GI50 in the experiment with EKVX NSCLC and with OVCAR-4 ovarian were 19.4 µM and 3.44 µM, respectively. For the same molecule, the TGI came to 16.1 µM with OVCAR-3 ovarian; 17 µM in the experiment with LOX IMVI melanoma; 13 µM with IGROV1 ovarian; 63.4 µM with SK-OV-3 ovarian; 23.8 µM in the experiment on HOP-62 NSCLC; 32.4 µM with OVCAR-5 ovarian. Besides, the TGI in the experiment with EKVX NSCLC amounted to 38.3 µM; in the experiment on OVCAR-4 ovarian it was 13.8 µM.
`Nc1nc(Cl)c2ncn(Cc3ccc(-c4ccc(CCl)cc4)cc3)c2n1`: the GI50 with OVCAR-3 ovarian was 7.3 µM; in the experiment with IGROV1 ovarian it was 12.5 µM; in the experiment with SK-OV-3 ovarian it was 37.1 µM; with HOP-62 NSCLC it was 15 µM; in the experiment on OVCAR-5 ovarian, 20.8 µM; in the experiment on EKVX NSCLC it was 10.6 µM. In the experiment on OVCAR-4 ovarian, the GI50 is 8.12 µM. For the same molecule, the TGI with OVCAR-3 ovarian was 32 µM; in the experiment with IGROV1 ovarian, over 100 µM; with SK-OV-3 ovarian, over 100 µM; with HOP-62 NSCLC, 34.8 µM; in the experiment on OVCAR-5 ovarian it was over 100 µM; with EKVX NSCLC, 40.1 µM. Besides, in the experiment with OVCAR-4 ovarian, the TGI was 43.6 µM.
On to `N#CC1C(=O)NC(=O)C(C#N)C1c1ccc(Cl)c(Cl)c1` (centres undefined), for which the TGI in the experiment on OVCAR-3 ovarian was 67 µM; in the experiment with LOX IMVI melanoma, 34.4 µM; in the experiment on IGROV1 ovarian it was 47.3 µM; in the experiment on SK-OV-3 ovarian, over 100 µM; with HOP-62 NSCLC, 43.4 µM; in the experiment on OVCAR-5 ovarian, 68.6 µM. The TGI in the experiment with EKVX NSCLC and with OVCAR-4 ovarian was over 100 µM in each case.
As for `C=CC(=O)Nc1cccc(Nc2nc(Nc3ccc(N4CCN(C(C)=O)CC4)cc3OC)ncc2C(F)(F)F)c1`, the GI50 in the experiment with OVCAR-3 ovarian is 3.69 µM and 1.07 µM; with LOX IMVI melanoma it was 2.71 µM and 3.04 µM; in the experiment on IGROV1 ovarian, 1.94 µM and 2.71 µM; with SK-OV-3 ovarian it was 0.211 µM and 0.291 µM; in the experiment with HOP-62 NSCLC, 6.52 µM and 6.2 µM; in the experiment with OVCAR-5 ovarian, 3.15 µM and 2.29 µM. Moreover, the GI50 in the experiment with EKVX NSCLC is 1.36 µM and 1.68 µM; in the experiment with OVCAR-4 ovarian, 5.12 µM and 1.71 µM. The TGI in the experiment with OVCAR-3 ovarian is over 30.3 µM; in the experiment on LOX IMVI melanoma it was > 10 µM and 14.2 µM; in the experiment with IGROV1 ovarian it was 9.84 µM and 13.6 µM; in the experiment on SK-OV-3 ovarian, 2.8 µM and 5.29 µM; in the experiment on HOP-62 NSCLC it was > 10 µM and 25.9 µM; with OVCAR-5 ovarian, over 100 µM. Besides, the TGI was > 10 µM and 12.4 µM in the experiment with EKVX NSCLC; over 65.9 µM in the experiment with OVCAR-4 ovarian.
With `NC(=S)N=Nc1c(O)[nH]c2ccccc12`, the GI50 in the experiment with OVCAR-3 ovarian was 139 µM; in the experiment with LOX IMVI melanoma, 226 µM; with IGROV1 ovarian, 66.7 µM and 162 µM; in the experiment on SK-OV-3 ovarian it was 209 µM; with HOP-62 NSCLC, 167 µM; in the experiment on EKVX NSCLC it was 19.2 µM and 123 µM. The GI50 in the experiment on OVCAR-4 ovarian is 239 µM. Moreover, the TGI is 322 µM in the experiment on OVCAR-3 ovarian; over 1000 µM with LOX IMVI melanoma; 477 µM in the experiment on IGROV1 ovarian; 431 µM in the experiment with SK-OV-3 ovarian; 360 µM with HOP-62 NSCLC; 318 µM in the experiment with EKVX NSCLC. Further, the TGI with OVCAR-4 ovarian was over 1000 µM.
Take `CC(C)CC1NC(=O)C(C(C)C)NC(=O)CC(C)COC(=O)C(CC(C)C)N(C)C(=O)C(C(C)C)NC(=O)C(C(C)C)OC1=O` (centres undefined): the TGI with OVCAR-3 ovarian, with LOX IMVI melanoma, in the experiment on IGROV1 ovarian, with SK-OV-3 ovarian, with HOP-62 NSCLC and with OVCAR-5 ovarian was over 50 µM in each case. For the same molecule, the TGI in the experiment on EKVX NSCLC was over 50 µM.
As to `COc1ccc(CNC(=O)c2c(C)n([O-])c3cc(F)c(F)cc3[n+]2=O)cc1`, the GI50 is 10 µM in the experiment on OVCAR-3 ovarian; 5.22 µM with LOX IMVI melanoma; 1.9 µM in the experiment with IGROV1 ovarian; 14.8 µM in the experiment with SK-OV-3 ovarian; 18.2 µM in the experiment on HOP-62 NSCLC; 16 µM in the experiment with OVCAR-5 ovarian. In the experiment with OVCAR-4 ovarian, the GI50 was 13.7 µM. Moreover, the TGI with OVCAR-3 ovarian worked out at 21.6 µM; in the experiment with LOX IMVI melanoma, 17.5 µM; with IGROV1 ovarian it was 3.84 µM; in the experiment on SK-OV-3 ovarian, 27.9 µM; in the experiment with HOP-62 NSCLC, 32.7 µM; in the experiment on OVCAR-5 ovarian, 29.4 µM. The molecule also showed a TGI in the experiment on OVCAR-4 ovarian of 26.9 µM.
For the molecule `O=S1(=O)C=C(c2ccccc2)C(c2ccccc2)=C1`, the GI50 in the experiment on OVCAR-3 ovarian is 1.56 µM; in the experiment with LOX IMVI melanoma it was 1.69 µM; in the experiment on SK-OV-3 ovarian, 7.81 µM; with HOP-62 NSCLC, 1.87 µM; in the experiment with OVCAR-5 ovarian it was 1.69 µM; in the experiment with EKVX NSCLC, 2.08 µM. The GI50 with OVCAR-4 ovarian was 1.9 µM. Also, the TGI in the experiment on OVCAR-3 ovarian was 2.9 µM; in the experiment on LOX IMVI melanoma, 3.05 µM; with SK-OV-3 ovarian, 20.2 µM; in the experiment on HOP-62 NSCLC, 4.42 µM; in the experiment with OVCAR-5 ovarian, 3.14 µM; with EKVX NSCLC, 6.21 µM. For the same molecule, in the experiment on OVCAR-4 ovarian, the TGI came to 3.82 µM.
As to `O=C(Nc1ccc(N2CCNCC2)cn1)c1[nH]ncc1Nc1ncnc2sc3c(c12)CCC3`, the GI50 in the experiment on OVCAR-3 ovarian is 1.84 µM; in the experiment on SK-OV-3 ovarian, 16.3 µM; in the experiment on HOP-62 NSCLC, 1.83 µM; with EKVX NSCLC, 1.99 µM. For the same molecule, the TGI in the experiment on OVCAR-3 ovarian came out at 3.62 µM; in the experiment on SK-OV-3 ovarian, 34.8 µM; with HOP-62 NSCLC, 4.81 µM; in the experiment with EKVX NSCLC it was 5.77 µM.
As to `CC(=O)c1cccc(NC(=O)/C(=N\NC(=S)NN)C2C(=O)Nc3ccccc3S2=O)c1` (centres undefined), the TGI with OVCAR-3 ovarian, in the experiment with LOX IMVI melanoma, in the experiment on IGROV1 ovarian, in the experiment with SK-OV-3 ovarian, in the experiment with HOP-62 NSCLC and in the experiment with OVCAR-5 ovarian was over 100 µM each time. In the experiment with EKVX NSCLC, this molecule displayed a TGI of over 100 µM.
